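Grown in 96-well plates, cells were treated for 48 hours with each compound at five concentrations. Insufficient inhibition: endpoint recorded as highest concentration tested. Abbreviation: GI50, concentration required for 50% inhibition of growth. TGI is the concentration that stops growth completely.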
Tests used:
Experiment in all cases: DTP human tumour cell line panel, 48 h
[1] = system: HCT-15 colon
[2] = system: U251 CNS
[3] = system: RPMI-8226 leukemia
[4] = system: HL-60(TB) leukemia
[5] = system: KM12 colon
[6] = system: SK-OV-3 ovarian
[7] = system: COLO 205 colon
[8] = system: MCF7 breast
[9] = system: SW-620 colon
[10] = system: MDA-MB-231 breast
[11] = system: NCI-H522 lung
[12] = system: UO-31 renal
[13] = system: NCI-H23 lung
[14] = system: NCI-H460 lung
[15] = system: OVCAR-4 ovarian
[16] = system: HCC-2998 colon
[17] = system: NCI/ADR-RES ovarian
[18] = system: CCRF-CEM leukemia
[19] = system: NCI-H226 lung
[20] = system: CAKI-1 renal
[21] = system: HCT-116 colon
[22] = system: BT-549 breast
[23] = system: MOLT-4 leukemia
[24] = system: T-47D breast
[25] = system: SNB-19 CNS
[26] = system: 786-0 renal
[27] = system: MDA-MB-435
[28] = system: SF-539 CNS
[29] = system: SK-MEL-28 melanoma

Q: `COC(=O)C1=CN(CC2=CC(=O)C(C)=CC2=O)C=C(C(=O)OC)C1c1cc(OC)ccc1OC` was tested. Which GI50 [1] did it give?
A: 13.5 µM

Q: And the TGI [1]?
A: 30 µM

Q: What about the GI50 [2] of the same compound?
A: 6.87 µM

Q: What about the TGI [2] of the same compound?
A: 20.2 µM

Q: And the GI50 [3]?
A: 1.9 µM

Q: And the TGI [3]?
A: 4.83 µM

Q: And the GI50 [4]?
A: 6.8 µM

Q: What about the TGI [4] of the same compound?
A: 99.4 µM

Q: What about the GI50 [5] of the same compound?
A: 16.1 µM

Q: What about the TGI [5] of the same compound?
A: 31.7 µM

Q: And the GI50 [6]?
A: 23 µM

Q: And the TGI [6]?
A: > 54.8 µM

Q: What about the GI50 [7] of the same compound?
A: 8.56 µM

Q: What about the TGI [7] of the same compound?
A: 30.6 µM

Q: What about the GI50 [8] of the same compound?
A: 22.7 µM

Q: What about the TGI [8] of the same compound?
A: > 92.2 µM

Q: What about the GI50 [9] of the same compound?
A: 3.38 µM

Q: What about the TGI [9] of the same compound?
A: 11.6 µM

Q: What about the GI50 [10] of the same compound?
A: 15.7 µM

Q: And the TGI [10]?
A: 30.2 µM

Q: What about the GI50 [11] of the same compound?
A: 18.9 µM

Q: And the TGI [11]?
A: > 56.2 µM

Q: What about the GI50 [12] of the same compound?
A: 4.94 µM

Q: And the TGI [12]?
A: 9.44 µM

Q: And the GI50 [13]?
A: 13.4 µM

Q: And the TGI [13]?
A: 28.6 µM

Q: What about the GI50 [14] of the same compound?
A: 20.4 µM

Q: What about the TGI [14] of the same compound?
A: > 95.8 µM

Q: And the GI50 [15]?
A: 12.5 µM

Q: And the TGI [15]?
A: 30.9 µM

Q: What about the GI50 [16] of the same compound?
A: 5.79 µM

Q: And the TGI [16]?
A: 13.4 µM

Q: And the GI50 [17]?
A: 15.7 µM

Q: What about the TGI [17] of the same compound?
A: 39.2 µM

Q: What about the GI50 [18] of the same compound?
A: 1.73 µM

Q: What about the TGI [18] of the same compound?
A: 3.61 µM

Q: And the GI50 [19]?
A: 20.1 µM

Q: What about the TGI [19] of the same compound?
A: 54.3 µM

Q: And the GI50 [20]?
A: 6.38 µM

Q: And the TGI [20]?
A: 13.5 µM

Q: What about the GI50 [21] of the same compound?
A: 1.87 µM

Q: And the TGI [21]?
A: 3.28 µM

Q: What about the GI50 [22] of the same compound?
A: 17.1 µM

Q: What about the TGI [22] of the same compound?
A: 41.7 µM

Q: What about the GI50 [23] of the same compound?
A: 2.21 µM

Q: And the GI50 [24]?
A: 3.03 µM

Q: And the TGI [24]?
A: > 100 µM

Q: And the GI50 [25]?
A: 14.1 µM

Q: What about the TGI [25] of the same compound?
A: 48.1 µM

Q: And the GI50 [26]?
A: 2.28 µM

Q: What about the TGI [26] of the same compound?
A: 5.54 µM

Q: And the GI50 [27]?
A: 16.7 µM

Q: And the TGI [27]?
A: 31.2 µM

Q: And the GI50 [28]?
A: 16.6 µM

Q: And the TGI [28]?
A: 31.9 µM

Q: What about the GI50 [29] of the same compound?
A: 15.4 µM

Q: What about the TGI [29] of the same compound?
A: 40.5 µM

From PubChem BioAssay (NCI)
